Assay results: patent US20230250436A1, “NUCLEIC ACID THAT INTERACTS WITH A RECEPTOR FOR ENDOCRINE DISRUPTING CHEMICALS AND USE THEREOF” (KUMIAI CHEMICAL INDUSTRY CO., LTD., priority 2020, published 2023)

Test system: juvenile hormone receptor of Daphnia magna (DampaMET)
Assay: Yeast reporter (β-galactosidase) assay, transformants with DampaMET and DampaSRC
Type: cell-based
Description: Subsequently, a reporter plasmid prepared by inserting the nucleotide sequence shown in SEQ ID NO: 2 into a yeast comprising the DampaMET plasmid and the DampaSRC plasmid introduced thereinto by the lithium acetate method. Thus, Yeast 1 of Invention was obtained. In the same manner, Yeasts 2 to 38 of Invention each comprising the response element according to the present invention and Control yeasts 1 to 9 shown in Table 3 were prepared.
With the use of the Yeast 1 of Invention, reporter activity to methyl farnesoate as a juvenile hormone substance was measured. At the outset, the Yeast 1 of Invention was subjected to pre-culture at 30° C. for 18 hours using the pre-culture medium shown in Table 1 until the turbidity (O.D. 595) of the pre-culture medium reached approximately 0.1. The solution of the pre-cultured cells (10 μl) and 1 μl of the solution of methyl farnesoate diluted to various concentrations with dimethyl sulfoxide (DMSO) were mixed with 90 μl of the main culture solution shown in Table 4 in a 96-well plate, and the mixture was subjected to static culture at 30° C. for 18 hours to prepare a reaction solution. The resultant was designated as a test group.
A reaction solution prepared with the addition of 1 μl of DMSO instead of a diluted methyl farnesoate solution was designated as a control group. Fractions of 10 μl each were collected from the reaction solutions and dispensed into each well of another 96-well plate. Thereafter, 100 μl of an assay reagent comprising a lytic solution (Z buffer: 60 mM Na2HPO4, 40 mM NaH2PO4, 1 mM MgCl2, 10 mM KCl, 2 mM dithiothreitol, 0.20% N-lauroylsarcosine sodium salt) mixed with 1 mg/ml ONPG (orthonitrophenylgalactopyranoside) was dispensed into each well, and the reaction was allowed to proceed at 37° C. for 30 minutes. Thereafter, the absorbance (O.D. 405) and the turbidity (O.D. 595) of the reaction solutions were assayed at the wavelength of 405 nm using a microplate reader (tradename: iMark microplate reader, Bio-Rad Laboratories). The increase of induction was calculated in accordance with the following formula.
The increase of induction is described in Ito-Harashima S et al., FEBS Open Bio., 7 (7): pp. 995-1008, 2017. When the increase of induction is positive, the transformant is determined to have reporter activity to the substance tested. The test was performed once or repeated 3 times, 5 times, or 15 times, and the average increase of induction was calculated. The control yeast 1 was treated in the same manner and reporter activity was compared.
In the same manner as in Test Example 1, the Yeasts 2, 3, 4, 5, 6, 7, 9, 10, 11, 12, 13, 14, 15, 16, 17, 18, 19, and 20 of Invention were subjected to assays of reporter activity to methyl farnesoate. The test was performed in accordance with Test Example 1, and reporter activity of the yeasts indicated above was compared with that of the control yeasts 2, 3, and 4.
With the use of the control yeast 7 comprising a different nucleotide sequence of the C-box (CACGCG) in the response element, the control yeast 8 comprising a different nucleotide sequence of the E-box (CACGTG), and the control yeast 9 comprising different nucleotide sequences of the C-box and the E-box from the relevant nucleotide sequences of the Yeast 4 of Invention, the influence of a core sequence on reporter activity to methyl farnesoate was evaluated. The test was performed in accordance with Test Example 1.
With the use of the Yeast 4 and the Yeast 8 of the present Invention, reporter activity to sex hormones; i.e., 17β-estradiol and testosterone, insect juvenile hormones; i.e., juvenile hormone III, and chemical substances suspected of having endocrine disrupting actions, such as 4-nonyl phenol, bisphenol A, 1,1,1-trichloro-2,2-bis(4-chlorophenyl)ethane (DDT), 2,2-bis(4-chlorophenyl)-1,1-dichloroethylene (DDE), and dieldrin, was assayed. The test was performed in accordance with Test Example 1. All the test substances were treated at 10 μM. […]

COC(=O)/C=C(\C)CC/C=C(\C)CCC=C(C)C [methyl farnesoate]
increase of induction (Control yeast 1 (cacgcggcggcacgtg x1), 100 pM): 0.01 | increase of induction (Control yeast 1 (cacgcggcggcacgtg x1), 1 nM): 0.00 | increase of induction (Control yeast 2 (cacgcggcggcacgtg x2), 10 nM): −0.29 | increase of induction (Control yeast 2 (cacgcggcggcacgtg x2), 100 nM): −0.27 | increase of induction (Control yeast 2 (cacgcggcggcacgtg x2), 1 μM): −0.34 | increase of induction (Control yeast 2 (cacgcggcggcacgtg x2), 10 μM): −0.21 | increase of induction (Control yeast 2 (cacgcggcggcacgtg x2), 100 μM): −0.14 | increase of induction (Control yeast 3 (cacgcggcggcacgtg x3), 10 nM): −0.12 | increase of induction (Control yeast 3 (cacgcggcggcacgtg x3), 100 nM): −0.21 | increase of induction (Control yeast 3 (cacgcggcggcacgtg x3), 1 μM): −0.27 | increase of induction (Control yeast 3 (cacgcggcggcacgtg x3), 10 μM): −0.17 | increase of induction (Control yeast 3 (cacgcggcggcacgtg x3), 100 μM): −0.17 | increase of induction (Control yeast 4 (cacgcggcggcacgtg x4), 10 nM): −0.84 | increase of induction (Control yeast 4 (cacgcggcggcacgtg x4), 100 nM): −1.49 | increase of induction (Control yeast 4 (cacgcggcggcacgtg x4), 1 μM): −1.82 | increase of induction (Control yeast 4 (cacgcggcggcacgtg x4), 10 μM): −1.05 | increase of induction (Control yeast 4 (cacgcggcggcacgtg x4), 100 μM): −2.06 | increase of induction (Control yeast 7 (SEQ ID NO: 25 x4, different C-box), 100 nM): −0.42 | increase of induction (Control yeast 7 (SEQ ID NO: 25 x4, different C-box), 10 μM): −0.12 | increase of induction (Control yeast 8 (SEQ ID NO: 28 x4, different E-box), 100 nM): 0.00 | increase of induction (Control yeast 8 (SEQ ID NO: 28 x4, different E-box), 10 μM): −0.02 | increase of induction (Control yeast 9 (SEQ ID NO: 31 x4, different C-box and E-box), 100 nM): −0.42 | increase of induction (Control yeast 9 (SEQ ID NO: 31 x4, different C-box and E-box), 10 μM): −0.12 | increase of induction (Yeast 1 of Invention (SEQ ID NO: 2 x1), 100 pM): 0.10 | increase of induction (Yeast 1 of Invention (SEQ ID NO: 2 x1), 1 nM): 0.08 | increase of induction (Yeast 2 of Invention (SEQ ID NO: 2 x2), 10 nM): 0.54 | increase of induction (Yeast 2 of Invention (SEQ ID NO: 2 x2), 100 nM): 1.26 | increase of induction (Yeast 2 of Invention (SEQ ID NO: 2 x2), 1 μM): 1.45 | increase of induction (Yeast 2 of Invention (SEQ ID NO: 2 x2), 10 μM): 1.64 | increase of induction (Yeast 2 of Invention (SEQ ID NO: 2 x2), 100 μM): 1.57 | increase of induction (Yeast 3 of Invention (SEQ ID NO: 2 x3), 10 nM): 2.05 | increase of induction (Yeast 3 of Invention (SEQ ID NO: 2 x3), 100 nM): 4.35 | increase of induction (Yeast 3 of Invention (SEQ ID NO: 2 x3), 1 μM): 4.45 | increase of induction (Yeast 3 of Invention (SEQ ID NO: 2 x3), 10 μM): 4.07 | increase of induction (Yeast 3 of Invention (SEQ ID NO: 2 x3), 100 μM): 4.29 | increase of induction (Yeast 4 of Invention (SEQ ID NO: 2 x4), 10 nM, Test Example 2): 5.13 | increase of induction (Yeast 4 of Invention (SEQ ID NO: 2 x4), 100 nM, Test Example 2): 7.55 | increase of induction (Yeast 4 of Invention (SEQ ID NO: 2 x4), 100 nM, Test Example 3): 0.42 | increase of induction (Yeast 4 of Invention (SEQ ID NO: 2 x4), 1 μM, Test Example 2): 7.12 | increase of induction (Yeast 4 of Invention (SEQ ID NO: 2 x4), 10 μM, Test Example 2): 7.44 | increase of induction (Yeast 4 of Invention (SEQ ID NO: 2 x4), 10 μM, Test Example 3): 0.51 | increase of induction (Yeast 4 of Invention (SEQ ID NO: 2 x4), 100 μM, Test Example 2): 7.47 | increase of induction (Yeast 5 of Invention (SEQ ID NO: 2 x5), 10 nM): 1.33 | increase of induction (Yeast 5 of Invention (SEQ ID NO: 2 x5), 100 nM): 3.29 | increase of induction (Yeast 5 of Invention (SEQ ID NO: 2 x5), 1 μM): 3.72 | increase of induction (Yeast 5 of Invention (SEQ ID NO: 2 x5), 10 μM): 3.76 | increase of induction (Yeast 5 of Invention (SEQ ID NO: 2 x5), 100 μM): 4.05 | increase of induction (Yeast 6 of Invention (SEQ ID NO: 5 x3), 10 nM): 0.33 | increase of induction (Yeast 6 of Invention (SEQ ID NO: 5 x3), 100 nM): 1.19 | increase of induction (Yeast 6 of Invention (SEQ ID NO: 5 x3), 1 μM): 1.18 | increase of induction (Yeast 6 of Invention (SEQ ID NO: 5 x3), 10 μM): 1.33 | increase of induction (Yeast 6 of Invention (SEQ ID NO: 5 x3), 100 μM): 1.33 | increase of induction (Yeast 7 of Invention (SEQ ID NO: 8 x3), 10 nM): 0.06 | increase of induction (Yeast 7 of Invention (SEQ ID NO: 8 x3), 100 nM): 0.26 | increase of induction (Yeast 7 of Invention (SEQ ID NO: 8 x3), 1 μM): 0.32 | increase of induction (Yeast 7 of Invention (SEQ ID NO: 8 x3), 10 μM): 0.36 | increase of induction (Yeast 7 of Invention (SEQ ID NO: 8 x3), 100 μM): 0.34 | increase of induction (Yeast 9 of Invention (SEQ ID NO: 34 x1), 100 nM): 0.19 | increase of induction (Yeast 9 of Invention (SEQ ID NO: 34 x1), 10 μM): 0.16 | increase of induction (Yeast 10 of Invention (SEQ ID NO: 34 x2), 100 nM): 0.08 | increase of induction (Yeast 10 of Invention (SEQ ID NO: 34 x2), 10 μM): 0.20 | increase of induction (Yeast 11 of Invention (SEQ ID NO: 34 x3), 100 nM): 0.22 | increase of induction (Yeast 11 of Invention (SEQ ID NO: 34 x3), 10 μM): 0.24 | increase of induction (Yeast 12 of Invention (SEQ ID NO: 34 x4), 100 nM): 1.43 | increase of induction (Yeast 12 of Invention (SEQ ID NO: 34 x4), 10 μM): 2.55 | increase of induction (Yeast 13 of Invention (SEQ ID NO: 34 x5), 10 μM): 0.09 | increase of induction (Yeast 14 of Invention (SEQ ID NO: 8 x1), 10 μM): 0.09 | increase of induction (Yeast 15 of Invention (SEQ ID NO: 8 x2), 100 nM): 0.09 | increase of induction (Yeast 15 of Invention (SEQ ID NO: 8 x2), 10 μM): 0.16 | increase of induction (Yeast 16 of Invention (SEQ ID NO: 8 x4), 100 nM): 0.65 | increase of induction (Yeast 16 of Invention (SEQ ID NO: 8 x4), 10 μM): 1.32 | increase of induction (Yeast 17 of Invention (SEQ ID NO: 37 x1), 100 nM): 0.06 | increase of induction (Yeast 17 of Invention (SEQ ID NO: 37 x1), 10 μM): 0.09 | increase of induction (Yeast 18 of Invention (SEQ ID NO: 37 x2), 100 nM): 0.10 | increase of induction (Yeast 19 of Invention (SEQ ID NO: 37 x3), 100 nM): 1.53 | increase of induction (Yeast 19 of Invention (SEQ ID NO: 37 x3), 10 μM): 2.27 | increase of induction (Yeast 20 of Invention (SEQ ID NO: 37 x4), 100 nM): 1.55 | increase of induction (Yeast 20 of Invention (SEQ ID NO: 37 x4), 10 μM): 1.85 | increase of induction (Yeast 25 of Invention (SEQ ID NO: 43 x1), 100 nM): 0.06 | increase of induction (Yeast 25 of Invention (SEQ ID NO: 43 x1), 10 μM): 0.15 | increase of induction (Yeast 26 of Invention (SEQ ID NO: 43 x2), 100 nM): 0.35 | increase of induction (Yeast 26 of Invention (SEQ ID NO: 43 x2), 10 μM): 0.38 | increase of induction (Yeast 27 of Invention (SEQ ID NO: 43 x3), 100 nM): 0.03 | increase of induction (Yeast 27 of Invention (SEQ ID NO: 43 x3), 10 μM): 0.64 | increase of induction (Yeast 28 of Invention (SEQ ID NO: 43 x4), 100 nM): 1.87 | increase of induction (Yeast 28 of Invention (SEQ ID NO: 43 x4), 10 μM): 2.51 | increase of induction (Yeast 29 of Invention (SEQ ID NO: 46 x1), 100 nM): 0.07 | increase of induction (Yeast 29 of Invention (SEQ ID NO: 46 x1), 10 μM): 0.07 | increase of induction (Yeast 30 of Invention (SEQ ID NO: 46 x2), 100 nM): 0.16 | increase of induction (Yeast 30 of Invention (SEQ ID NO: 46 x2), 10 μM): 0.07 | increase of induction (Yeast 31 of Invention (SEQ ID NO: 46 x3), 100 nM): 0.09 | increase of induction (Yeast 31 of Invention (SEQ ID NO: 46 x3), 10 μM): 0.23 | increase of induction (Yeast 32 of Invention (SEQ ID NO: 49 x1), 100 nM): 0.11 | increase of induction (Yeast 32 of Invention (SEQ ID NO: 49 x1), 10 μM): 0.31 | increase of induction (Yeast 33 of Invention (SEQ ID NO: 49 x2), 100 nM): 0.42 | increase of induction (Yeast 33 of Invention (SEQ ID NO: 49 x2), 10 μM): 0.22 | increase of induction (Yeast 34 of Invention (SEQ ID NO: 49 x3), 100 nM): 0.66 | increase of induction (Yeast 34 of Invention (SEQ ID NO: 49 x3), 10 μM): 2.15 | increase of induction (Yeast 35 of Invention (SEQ ID NO: 49 x4), 100 nM): 1.44 | increase of induction (Yeast 35 of Invention (SEQ ID NO: 49 x4), 10 μM): 1.05
